# In US11395857B2, “Radiolabeled melanocortin 1 receptor-specific alpha-melanocyte-stimulating hormone analogues for imaging or therapy” (PROVINCIAL HEALTH SERVICES AUTHORITY, priority 2018, dated 2022):
# How the values were obtained:
# B16F10 mouse melanoma = test: Biodistribution of 177Lu-labeled αMSH analogues in mice bearing B16F10 mouse melanoma; type: in vivo, C57BL/6J mice; details: among six αMSH analogues
# Procedure: The B16-F10 mouse melanoma cells were cultured and inoculated in mice as described in Example 1.
# For biodistribution studies, approximately 1-2 MBq of ^177Lu-labeled αMSH analogues via tail vein under anesthesia. At 1, 4, 24, and 120 h p.i., the mice were euthanized by CO2 inhalation. Organs/tissues were harvested and the radioactivity was measured as described in Example 1.
# [1] = Biodistribution of 177Lu-labeled αMSH analogues in mice bearing SK-MEL-1 human melanoma; details: male, mouse, total radioactivity; for tissue to tissue ratio at 1 h: 1 h p.i.; for tissue to tissue ratio at 1 h / tissue to tissue ratio at 4 h / tissue to tissue ratio at 24 h / tissue to tissue ratio at 120 h: NRG mice, SK-MEL-1 melanoma; for tissue to tissue ratio at 4 h: 4 h p.i.; for tissue to tissue ratio at 24 h: 24 h p.i.; for tissue to tissue ratio at 120 h: 120 h p.i.
# Procedure: The SK-MEL-1 human melanoma cell line (HTB-67) was obtained commercially from ATCC. SK-MEL-1 cells were cultured in Eagle's Minimum Essential Medium (StemCell Technologies) under the same conditions as described in Example 1. Immunodeficient NOD.Cg-Rag1tm1Mom I12rgtm1Wjl/SzJ (NRG) male mice were obtained from an in-house breeding colony at the BC Cancer Research Centre. For tumor implantation, male NRG mice were anesthetized by inhalation with 2% isoflurane, and 5 million SK-MEL-1 cells were inoculated subcutaneously on the right dorsal flank. Mice were used for imaging or biodistribution studies when the tumors reached 6-8 mm in diameter in 16-20 days.
# Biodistribution studies were performed as described in Example 3.
# [2] = NRG (NOD.Cg-Rag1tm1Mom I12rgtm1Wjl/SzJ), fat, iv
# [3] = NRG (NOD.Cg-Rag1tm1Mom I12rgtm1Wjl/SzJ), seminal glands, iv
# [4] = NRG (NOD.Cg-Rag1tm1Mom Il2rgtm1Wjl/SzJ), SK-MEL-1 tumour
# [5] = NRG (NOD.Cg-Rag1tm1Mom Il2rgtm1Wjl/SzJ), adrenal glands
# [6] = NRG (NOD.Cg-Rag1tm1Mom Il2rgtm1Wjl/SzJ), blood
# [7] = NRG (NOD.Cg-Rag1tm1Mom Il2rgtm1Wjl/SzJ), bone
# [8] = NRG (NOD.Cg-Rag1tm1Mom Il2rgtm1Wjl/SzJ), brain
# [9] = NRG (NOD.Cg-Rag1tm1Mom Il2rgtm1Wjl/SzJ), heart
# [10] = NRG (NOD.Cg-Rag1tm1Mom Il2rgtm1Wjl/SzJ), intestine
# [11] = NRG (NOD.Cg-Rag1tm1Mom Il2rgtm1Wjl/SzJ), kidneys
# [12] = NRG (NOD.Cg-Rag1tm1Mom Il2rgtm1Wjl/SzJ), liver
# [13] = NRG (NOD.Cg-Rag1tm1Mom Il2rgtm1Wjl/SzJ), lungs
# [14] = NRG (NOD.Cg-Rag1tm1Mom Il2rgtm1Wjl/SzJ), muscle
# [15] = NRG (NOD.Cg-Rag1tm1Mom Il2rgtm1Wjl/SzJ), pancreas
# [16] = NRG (NOD.Cg-Rag1tm1Mom Il2rgtm1Wjl/SzJ), spleen
# [17] = NRG (NOD.Cg-Rag1tm1Mom Il2rgtm1Wjl/SzJ), stomach
# [18] = NRG (NOD.Cg-Rag1tm1Mom Il2rgtm1Wjl/SzJ), testes
# [19] = NRG (NOD.Cg-Rag1tm1Mom Il2rgtm1Wjl/SzJ), thyroid
# [20] = NRG (NOD.Cg-Rag1tm1Mom Il2rgtm1Wjl/SzJ), tumour/blood
# [21] = NRG (NOD.Cg-Rag1tm1Mom Il2rgtm1Wjl/SzJ), tumour/kidney
# [22] = NRG (NOD.Cg-Rag1tm1Mom Il2rgtm1Wjl/SzJ), tumour/muscle
# [23] = NRG (NOD.Cg-Rag1tm1Mom Il2rgtm1Wjl/SzJ), urine
smiles,measurement,setting,value
"CCCC[C@H](NC(=O)CN1CCC(NC(=O)[C@H](CCCCNC(=O)CN2CCN(CC(=O)O)CCN(CC(=O)O)CCN(CC(=O)O)CC2)NC(=O)[C@H](CCC(=O)O)NC(=O)CCCc2ccc(I)cc2)CC1)C(=O)N[C@H]1CC(=O)NCCCC[C@@H](C(N)=O)N(C)C(=O)[C@H](Cc2c[nH]c3ccccc23)NC(=O)[C@H](CCCNC(=N)N)N(C)C(=O)[C@@H](Cc2ccccc2)NC(=O)[C@H](Cc2c[nH]cn2)NC1=O [CCZ01118, [4-(p-iodophenyl)butanoyl]-Glu-Lys(DOTA)-Pip-Nle-cyclo[Asp-His-D-Phe-N-Me-Arg-Trp-N-Me-Lys]-NH2]",Improvement in tumour uptake retention,B16F10 mouse melanoma,showed the most improvement in tumour uptake retention
"CCCC[C@H](NC(=O)CN1CCC(NC(=O)[C@H](CCCCNC(=O)CN2CCN(CC(=O)O)CCN(CC(=O)O)CCN(CC(=O)O)CC2)NC(=O)CNC(=O)CCCc2ccc(I)cc2)CC1)C(=O)N[C@H]1CC(=O)NCCCC[C@@H](C(N)=O)N(C)C(=O)[C@H](Cc2c[nH]c3ccccc23)NC(=O)[C@H](CCCNC(=N)N)N(C)C(=O)[C@@H](Cc2ccccc2)NC(=O)[C@H](Cc2c[nH]cn2)NC1=O [^177Lu-labeled CCZ01148, metal not drawn]",tissue uptake at 1 h,[1]; [2],2.4 ± 0.39 %ID/g
same,tissue uptake at 4 h,[1]; [2],2.69 ± 0.38 %ID/g
same,tissue uptake at 24 h,[1]; [2],2.1 ± 0.53 %ID/g
same,tissue uptake at 120 h,[1]; [2],1.13 ± 0.55 %ID/g
same,tissue uptake at 1 h,[1]; [3],1.81 ± 0.6 %ID/g
same,tissue uptake at 4 h,[1]; [3],1.66 ± 0.51 %ID/g
same,tissue uptake at 24 h,[1]; [3],1.22 ± 0.11 %ID/g
same,tissue uptake at 120 h,[1]; [3],0.44 ± 0.12 %ID/g
same,tissue uptake at 1 h,[1]; [4],6.62 ± 1.37 %ID/g
same,tissue uptake at 4 h,[1]; [4],9.46 ± 1.59 %ID/g
same,tissue uptake at 24 h,[1]; [4],30.5 ± 2.72 %ID/g
same,tissue uptake at 120 h,[1]; [4],26.5 ± 4.52 %ID/g
same,tissue uptake at 1 h,[1]; [5],6.47 ± 2.97 %ID/g
same,tissue uptake at 4 h,[1]; [5],5.69 ± 2.19 %ID/g
same,tissue uptake at 24 h,[1]; [5],5.66 ± 1.07 %ID/g
same,tissue uptake at 120 h,[1]; [5],4.04 ± 1.06 %ID/g
same,tissue uptake at 1 h,[1]; [6],32 ± 5.85 %ID/g
same,tissue uptake at 4 h,[1]; [6],22.7 ± 1.5 %ID/g
same,tissue uptake at 24 h,[1]; [6],14.7 ± 0.98 %ID/g
same,tissue uptake at 120 h,[1]; [6],1.93 ± 0.4 %ID/g
same,tissue uptake at 1 h,[1]; [7],1.98 ± 0.8 %ID/g
same,tissue uptake at 4 h,[1]; [7],1.38 ± 0.29 %ID/g
same,tissue uptake at 24 h,[1]; [7],1.21 ± 0.2 %ID/g
same,tissue uptake at 120 h,[1]; [7],0.49 ± 0.17 %ID/g
same,tissue uptake at 1 h,[1]; [8],0.49 ± 0.06 %ID/g
same,tissue uptake at 4 h,[1]; [8],0.39 ± 0.05 %ID/g
same,tissue uptake at 24 h,[1]; [8],0.32 ± 0.03 %ID/g
same,tissue uptake at 120 h,[1]; [8],0.13 ± 0.02 %ID/g
same,tissue uptake at 1 h,[1]; [9],7.94 ± 1.58 %ID/g
same,tissue uptake at 4 h,[1]; [9],5.71 ± 0.51 %ID/g
same,tissue uptake at 24 h,[1]; [9],4.57 ± 0.51 %ID/g
same,tissue uptake at 120 h,[1]; [9],1.4 ± 0.25 %ID/g
same,tissue uptake at 1 h,[1]; [10],3.1 ± 1 %ID/g
same,tissue uptake at 4 h,[1]; [10],2.26 ± 0.56 %ID/g
same,tissue uptake at 24 h,[1]; [10],1.89 ± 0.29 %ID/g
same,tissue uptake at 120 h,[1]; [10],0.54 ± 0.1 %ID/g
same,tissue uptake at 1 h,[1]; [11],12.5 ± 3.49 %ID/g
same,tissue uptake at 4 h,[1]; [11],9.78 ± 1.28 %ID/g
same,tissue uptake at 24 h,[1]; [11],9.72 ± 1.38 %ID/g
same,tissue uptake at 120 h,[1]; [11],4.08 ± 0.78 %ID/g
same,tissue uptake at 1 h,[1]; [12],7.36 ± 1.58 %ID/g
same,tissue uptake at 4 h,[1]; [12],7.11 ± 1.5 %ID/g
same,tissue uptake at 24 h,[1]; [12],8.35 ± 1.86 %ID/g
same,tissue uptake at 120 h,[1]; [12],4.38 ± 1.08 %ID/g
same,tissue uptake at 1 h,[1]; [13],17.6 ± 5.68 %ID/g
same,tissue uptake at 4 h,[1]; [13],11.8 ± 2.51 %ID/g
same,tissue uptake at 24 h,[1]; [13],9.06 ± 1.04 %ID/g
same,tissue uptake at 120 h,[1]; [13],2.35 ± 0.54 %ID/g
same,tissue uptake at 1 h,[1]; [14],2.13 ± 0.4 %ID/g
same,tissue uptake at 4 h,[1]; [14],1.96 ± 0.3 %ID/g
same,tissue uptake at 24 h,[1]; [14],1.5 ± 0.19 %ID/g
same,tissue uptake at 120 h,[1]; [14],0.31 ± 0.07 %ID/g
same,tissue uptake at 1 h,[1]; [15],3.09 ± 0.53 %ID/g
same,tissue uptake at 4 h,[1]; [15],2.55 ± 0.15 %ID/g
same,tissue uptake at 24 h,[1]; [15],2.27 ± 0.34 %ID/g
same,tissue uptake at 120 h,[1]; [15],0.7 ± 0.13 %ID/g
same,tissue uptake at 1 h,[1]; [16],5.65 ± 1.09 %ID/g
same,tissue uptake at 4 h,[1]; [16],4.21 ± 1.31 %ID/g
same,tissue uptake at 24 h,[1]; [16],6.19 ± 1 %ID/g
same,tissue uptake at 120 h,[1]; [16],6.86 ± 2.08 %ID/g
same,tissue uptake at 1 h,[1]; [17],1.03 ± 0.45 %ID/g
same,tissue uptake at 4 h,[1]; [17],1.02 ± 0.53 %ID/g
same,tissue uptake at 24 h,[1]; [17],1.44 ± 0.28 %ID/g
same,tissue uptake at 120 h,[1]; [17],0.47 ± 0.12 %ID/g
same,tissue uptake at 1 h,[1]; [18],4.23 ± 0.94 %ID/g
same,tissue uptake at 4 h,[1]; [18],5.09 ± 0.82 %ID/g
same,tissue uptake at 24 h,[1]; [18],4.89 ± 0.87 %ID/g
same,tissue uptake at 120 h,[1]; [18],3.03 ± 0.37 %ID/g
same,tissue uptake at 1 h,[1]; [19],7.45 ± 1.35 %ID/g
same,tissue uptake at 4 h,[1]; [19],6.83 ± 0.84 %ID/g
same,tissue uptake at 24 h,[1]; [19],11.6 ± 1.26 %ID/g
same,tissue uptake at 120 h,[1]; [19],12.4 ± 2.26 %ID/g
same,tissue to tissue ratio at 1 h,[1]; [20],0.21 ± 0.02
same,tissue to tissue ratio at 4 h,[1]; [20],0.42 ± 0.04
same,tissue to tissue ratio at 24 h,[1]; [20],2.08 ± 0.26
same,tissue to tissue ratio at 1 h,[1]; [21],0.54 ± 0.07
same,tissue to tissue ratio at 4 h,[1]; [21],0.96 ± 0.04
same,tissue to tissue ratio at 24 h,[1]; [21],3.19 ± 0.46
same,tissue to tissue ratio at 120 h,[1]; [21],6.57 ± 0.71
same,tissue to tissue ratio at 1 h,[1]; [22],3.11 ± 0.29
same,tissue to tissue ratio at 4 h,[1]; [22],4.85 ± 0.53
same,tissue to tissue ratio at 24 h,[1]; [22],20.5 ± 2.51
same,tissue to tissue ratio at 120 h,[1]; [22],91.3 ± 35.8
same,excreta dose per gram or mL at 1 h,[1]; [23],51 ± 21.8 %ID/g
same,excreta dose per gram or mL at 4 h,[1]; [23],11.2 ± 6.54 %ID/g
same,excreta dose per gram or mL at 24 h,[1]; [23],20.4 ± 7.69 %ID/g
same,excreta dose per gram or mL at 120 h,[1]; [23],6.46 ± 1.57 %ID/g
